Results from PubChem BioAssay AID1259407 (Chemical Carcinogenesis Research Information System (CCRIS), 2018).
Calls of active or inactive are those of the source. How the calls were made is not given here.

System: CCRIS mutagenicity, Ames/micronucleus/aberration tests
Experiment: CCRIS mutagenicity studies

Cc1ccc(N)cc1N
mutagenic call (End Point: IN VITRO CHROMOSOMAL ABERRATIONS, Test System: CHL CELLS, Metabolic Activation: NONE): active; positive (structural changes)
mutagenic call (End Point: IN VITRO CHROMOSOMAL ABERRATIONS, Test System: CHL CELLS, Metabolic Activation: RAT, LIVER, S-9, SODIUM PHENOBARBITAL AND 5,6-BENZOFLAVONE): active; positive (structural changes)
mutagenic call (End Point: IN VITRO CHROMOSOMAL ABERRATIONS, Test System: CHO-LB CELLS, Metabolic Activation: NONE): active; positive
mutagenic call (End Point: IN VITRO CHROMOSOMAL ABERRATIONS, Test System: CHO-LB CELLS, Metabolic Activation: RAT, LIVER, S-9, AROCLOR 1254): active; positive
mutagenic call (End Point: IN VITRO CHROMOSOMAL ABERRATIONS, Test System: CHO-WBL CELLS, Metabolic Activation: NONE): active; positive
mutagenic call (End Point: IN VITRO MICRONUCLEUS, Test System: HUMAN HEPATOMA HEP G2 CELLS, Metabolic Activation: NONE): active; positive
mutagenic call (Test System: AMES SALMONELLA TYPHIMURIUM, Strain/Indicator: TA97, Metabolic Activation: RAT, LIVER, S-9, AROCLOR 1254 (4 OR 10%), Method: STANDARD PLATE): inactive; negative
mutagenic call (Test System: AMES SALMONELLA TYPHIMURIUM, Strain/Indicator: TA98(1,8-DNP6), Metabolic Activation: PLANT CELLS, Method: PREINCUBATION): inactive; negative
mutagenic call (Test System: AMES SALMONELLA TYPHIMURIUM, Strain/Indicator: TA98(1,8-DNP6), Metabolic Activation: RAT, LIVER, S-9, AROCLOR 1254, Method: STANDARD PLATE): inactive; negative
mutagenic call (Test System: AMES SALMONELLA TYPHIMURIUM, Strain/Indicator: TA98(PYG219), Metabolic Activation: RAT, LIVER, S-9, AROCLOR 1254, Method: STANDARD PLATE): active; positive
mutagenic call (Test System: AMES SALMONELLA TYPHIMURIUM, Strain/Indicator: TA98, Metabolic Activation: MOUSE, LIVER, S-9, PHENOBARBITONE AND BETA-NAPHTHOFLAVONE, Method: STANDARD PLATE): active; positive
mutagenic call (Test System: AMES SALMONELLA TYPHIMURIUM, Strain/Indicator: TA98, Metabolic Activation: NONE, Method: MICROSUSPENSION): inactive; negative
mutagenic call (Test System: AMES SALMONELLA TYPHIMURIUM, Strain/Indicator: TA98, Metabolic Activation: NONE, Method: SUSPENSION/PLATE): inactive; negative
mutagenic call (Test System: AMES SALMONELLA TYPHIMURIUM, Strain/Indicator: TA98, Metabolic Activation: PLANT CELLS, Method: PREINCUBATION): inactive; negative
mutagenic call (Test System: AMES SALMONELLA TYPHIMURIUM, Strain/Indicator: TA98, Metabolic Activation: RAT LIVER CYTOSOL, AROCLOR 1254, Method: PREINCUBATION): inactive; negative
mutagenic call (Test System: AMES SALMONELLA TYPHIMURIUM, Strain/Indicator: TA98, Metabolic Activation: RAT LIVER MICROSOMES, AROCLOR 1254, Method: PREINCUBATION): active; positive
mutagenic call (Test System: AMES SALMONELLA TYPHIMURIUM, Strain/Indicator: TA98, Metabolic Activation: RAT LIVER S-9, AROCLOR 1254, Method: MICROSUSPENSION): active; positive
mutagenic call (Test System: AMES SALMONELLA TYPHIMURIUM, Strain/Indicator: TA98, Metabolic Activation: RAT LIVER S-9, PHENOBARBITAL AND BETA-NAPHTHOFLAVONE, Method: PREINCUBATION): active; positive
mutagenic call (Test System: AMES SALMONELLA TYPHIMURIUM, Strain/Indicator: TA98, Metabolic Activation: RAT, LIVER, HEPATOCYTES, AROCLOR 1254, Method: STANDARD PLATE): active; positive
mutagenic call (Test System: AMES SALMONELLA TYPHIMURIUM, Strain/Indicator: TA98, Metabolic Activation: RAT, LIVER, MICROSOMES, AROCLOR 1254, Method: PREINCUBATION): active; positive
mutagenic call (Test System: AMES SALMONELLA TYPHIMURIUM, Strain/Indicator: TA98, Metabolic Activation: RAT, LIVER, MICROSOMES, BENZO[A]PYRENE, Method: PREINCUBATION): active; positive
mutagenic call (Test System: AMES SALMONELLA TYPHIMURIUM, Strain/Indicator: TA98, Metabolic Activation: RAT, LIVER, MICROSOMES, CLOFIBRATE, Method: PREINCUBATION): inactive; negative
mutagenic call (Test System: AMES SALMONELLA TYPHIMURIUM, Strain/Indicator: TA98, Metabolic Activation: RAT, LIVER, MICROSOMES, DEXAMETHASONE, Method: PREINCUBATION): inactive; negative
mutagenic call (Test System: AMES SALMONELLA TYPHIMURIUM, Strain/Indicator: TA98, Metabolic Activation: RAT, LIVER, MICROSOMES, DIAMINOTOLUENE, Method: PREINCUBATION): active; positive
mutagenic call (Test System: AMES SALMONELLA TYPHIMURIUM, Strain/Indicator: TA98, Metabolic Activation: RAT, LIVER, MICROSOMES, ISONIAZID, Method: PREINCUBATION): inactive; negative
mutagenic call (Test System: AMES SALMONELLA TYPHIMURIUM, Strain/Indicator: TA98, Metabolic Activation: RAT, LIVER, MICROSOMES, PHENOBARBITAL, Method: PREINCUBATION): inactive; negative
mutagenic call (Test System: AMES SALMONELLA TYPHIMURIUM, Strain/Indicator: TA98, Metabolic Activation: RAT, LIVER, MICROSOMES, Method: PREINCUBATION): inactive; negative
mutagenic call (Test System: AMES SALMONELLA TYPHIMURIUM, Strain/Indicator: TA98, Metabolic Activation: RAT, LIVER, S-9, AROCLOR 1254, Method: STANDARD PLATE): active; positive
mutagenic call (Test System: AMES SALMONELLA TYPHIMURIUM, Strain/Indicator: TA98, Metabolic Activation: RAT, LIVER, S-9, AROCLOR, Method: PREINCUBATION): active; positive
mutagenic call (Test System: AMES SALMONELLA TYPHIMURIUM, Strain/Indicator: TA98, Metabolic Activation: RAT, LIVER, S-9, PCB, Method: PREINCUBATION): active; positive
mutagenic call (Test System: AMES SALMONELLA TYPHIMURIUM, Strain/Indicator: TA98, Metabolic Activation: RAT, LIVER, S-9, PHENOBARBITAL AND 5,6-BENZOFLAVONE, Method: PREINCUBATION): active; positive
mutagenic call (Test System: AMES SALMONELLA TYPHIMURIUM, Strain/Indicator: TA98, Metabolic Activation: RAT, LIVER, S-9, PHENOBARBITAL AND 5,6-BENZOFLAVONE, Method: SUSPENSION/PLATE): active; positive
mutagenic call (Test System: AMES SALMONELLA TYPHIMURIUM, Strain/Indicator: TA100, Metabolic Activation: NONE, Method: MICROSUSPENSION): inactive; negative
mutagenic call (Test System: AMES SALMONELLA TYPHIMURIUM, Strain/Indicator: TA100, Metabolic Activation: NONE, Method: PREINCUBATION): inactive; negative
mutagenic call (Test System: AMES SALMONELLA TYPHIMURIUM, Strain/Indicator: TA100, Metabolic Activation: NONE, Method: SUSPENSION/PLATE): inactive; negative
mutagenic call (Test System: AMES SALMONELLA TYPHIMURIUM, Strain/Indicator: TA100, Metabolic Activation: RAT LIVER S-9, AROCLOR 1254, Method: MICROSUSPENSION): inactive; negative
mutagenic call (Test System: AMES SALMONELLA TYPHIMURIUM, Strain/Indicator: TA100, Metabolic Activation: RAT LIVER S-9, PHENOBARBITAL AND BETA-NAPHTHOFLAVONE, Method: PREINCUBATION): active; positive
mutagenic call (Test System: AMES SALMONELLA TYPHIMURIUM, Strain/Indicator: TA100, Metabolic Activation: RAT, LIVER, S-9, AROCLOR 1254, Method: STANDARD PLATE): active; positive
mutagenic call (Test System: AMES SALMONELLA TYPHIMURIUM, Strain/Indicator: TA100, Metabolic Activation: RAT, LIVER, S-9, PCB, Method: PREINCUBATION): active; positive
mutagenic call (Test System: AMES SALMONELLA TYPHIMURIUM, Strain/Indicator: TA100, Metabolic Activation: RAT, LIVER, S-9, PHENOBARBITAL AND 5,6-BENZOFLAVONE, Method: PREINCUBATION): active; positive
mutagenic call (Test System: AMES SALMONELLA TYPHIMURIUM, Strain/Indicator: TA100, Metabolic Activation: RAT, LIVER, S-9, PHENOBARBITAL AND 5,6-BENZOFLAVONE, Method: SUSPENSION/PLATE): active; positive
mutagenic call (Test System: AMES SALMONELLA TYPHIMURIUM, Strain/Indicator: TA1535, Metabolic Activation: NONE, Method: PREINCUBATION): inactive; negative
mutagenic call (Test System: AMES SALMONELLA TYPHIMURIUM, Strain/Indicator: TA1535, Metabolic Activation: RAT LIVER S-9, PHENOBARBITAL AND BETA-NAPHTHOFLAVONE, Method: PREINCUBATION): inactive; negative
mutagenic call (Test System: AMES SALMONELLA TYPHIMURIUM, Strain/Indicator: TA1537, Metabolic Activation: NONE, Method: PREINCUBATION): inactive; negative
mutagenic call (Test System: AMES SALMONELLA TYPHIMURIUM, Strain/Indicator: TA1537, Metabolic Activation: RAT LIVER S-9, PHENOBARBITAL AND BETA-NAPHTHOFLAVONE, Method: PREINCUBATION): active; positive
mutagenic call (Test System: AMES SALMONELLA TYPHIMURIUM, Strain/Indicator: TA1537, Metabolic Activation: RAT, LIVER, S-9, AROCLOR 1254 (4 OR 10%), Method: STANDARD PLATE): inactive; negative
mutagenic call (Test System: AMES SALMONELLA TYPHIMURIUM, Strain/Indicator: TA1538, Metabolic Activation: RAT, LIVER, S-9, AROCLOR 1254 (4 OR 10%), Method: STANDARD PLATE): active; positive
mutagenic call (Test System: AMES SALMONELLA TYPHIMURIUM, Strain/Indicator: TA1538, Metabolic Activation: RAT, LIVER, S-9, AROCLOR 1254, Method: STANDARD PLATE): active; positive
mutagenic call (Test System: AMES SALMONELLA TYPHIMURIUM, Strain/Indicator: YG1024, Metabolic Activation: PLANT CELLS, Method: PREINCUBATION): active; positive
mutagenic call (Test System: CHINESE HAMSTER V-79, Strain/Indicator: V-79/6-THIOGUANINE, Metabolic Activation: NONE, Method: SUSPENSION/PLATE): inactive; negative
mutagenic call (Test System: CHINESE HAMSTER V-79, Strain/Indicator: V-79/6-THIOGUANINE, Metabolic Activation: RAT, LIVER, S-9, PHENOBARBITAL AND BETA-NAPHTHOFLAVONE, Method: SUSPENSION/PLATE): inactive; negative
mutagenic call (Test System: E.COLI, Strain/Indicator: WP2UVRA, Metabolic Activation: NONE, Method: PREINCUBATION): inactive; negative
mutagenic call (Test System: E.COLI, Strain/Indicator: WP2UVRA, Metabolic Activation: RAT LIVER S-9, PHENOBARBITAL AND BETA-NAPHTHOFLAVONE, Method: PREINCUBATION): inactive; negative
mutagenic call (Test System: UDS HUMAN HEPATOMA HEPG2 CELLS, Strain/Indicator: THY INCORP, Metabolic Activation: NONE, Method: AUTORADIOGRAPHY): active; positive
mutagenic call (Test System: UDS RAT HEPATOCYTES, Strain/Indicator: BROMODEOXYURIDINE INCORP, Metabolic Activation: NONE, Method: FLOW CYTOMETRIC ANALYSIS): active; positive
mutagenic call (Test System: UDS RAT HEPATOCYTES, Strain/Indicator: THY INCORP, Metabolic Activation: NONE, Method: AUTORADIOGRAPHY): active; positive
